C-Myc, SUMO and Nedd8 data for 29 molecules are collected here from US11578079B2, “SUMO inhibitor compounds and uses thereof” (CITY OF HOPE, priority 2018, dated 2023).

Common to all, as to parameters: key: + (less active); ++ (active); +++ (most active)
One assay deals with c-Myc. Nature of the assay: c-Myc activity (Table I, biological activities).
In a further assay the target is T1, SUMO (Homo sapiens, UniProt Q9UBT2).
T1 sequence (Q9UBT2 1-640): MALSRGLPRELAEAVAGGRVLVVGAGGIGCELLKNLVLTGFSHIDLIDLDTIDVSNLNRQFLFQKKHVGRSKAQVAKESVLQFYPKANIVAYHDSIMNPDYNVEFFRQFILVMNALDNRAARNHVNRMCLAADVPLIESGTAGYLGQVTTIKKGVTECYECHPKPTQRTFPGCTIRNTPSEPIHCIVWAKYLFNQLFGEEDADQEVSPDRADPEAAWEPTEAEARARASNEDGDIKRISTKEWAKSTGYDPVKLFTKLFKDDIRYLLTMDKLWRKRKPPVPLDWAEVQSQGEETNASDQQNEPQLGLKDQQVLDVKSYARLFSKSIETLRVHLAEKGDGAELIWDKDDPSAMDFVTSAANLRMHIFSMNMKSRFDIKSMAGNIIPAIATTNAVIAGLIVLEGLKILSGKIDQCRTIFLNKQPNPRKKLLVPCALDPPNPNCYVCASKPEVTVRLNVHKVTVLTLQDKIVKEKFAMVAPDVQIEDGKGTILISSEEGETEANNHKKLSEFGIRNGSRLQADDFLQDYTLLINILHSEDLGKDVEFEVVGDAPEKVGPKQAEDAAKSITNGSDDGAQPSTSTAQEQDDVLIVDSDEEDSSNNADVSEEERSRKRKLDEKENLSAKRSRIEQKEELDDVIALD
T1 sequence (Q9UBE0 1-346 partner): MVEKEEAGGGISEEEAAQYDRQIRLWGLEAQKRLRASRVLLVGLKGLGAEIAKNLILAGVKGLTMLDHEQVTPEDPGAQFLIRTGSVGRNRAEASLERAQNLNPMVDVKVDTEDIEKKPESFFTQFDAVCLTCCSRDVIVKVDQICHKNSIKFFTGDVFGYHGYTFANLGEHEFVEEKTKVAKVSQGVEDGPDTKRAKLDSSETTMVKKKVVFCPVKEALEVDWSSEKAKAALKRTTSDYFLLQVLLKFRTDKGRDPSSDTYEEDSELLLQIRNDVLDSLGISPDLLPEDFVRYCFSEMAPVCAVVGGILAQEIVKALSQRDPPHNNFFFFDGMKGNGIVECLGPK
Kind of assay: SUMO activity (Table I, biological activities). The assay is classed as biochemical.

The target in the next assay is T2, Nedd8 (Homo sapiens, UniProt Q8TBC4).
T2 sequence (Q8TBC4 1-463): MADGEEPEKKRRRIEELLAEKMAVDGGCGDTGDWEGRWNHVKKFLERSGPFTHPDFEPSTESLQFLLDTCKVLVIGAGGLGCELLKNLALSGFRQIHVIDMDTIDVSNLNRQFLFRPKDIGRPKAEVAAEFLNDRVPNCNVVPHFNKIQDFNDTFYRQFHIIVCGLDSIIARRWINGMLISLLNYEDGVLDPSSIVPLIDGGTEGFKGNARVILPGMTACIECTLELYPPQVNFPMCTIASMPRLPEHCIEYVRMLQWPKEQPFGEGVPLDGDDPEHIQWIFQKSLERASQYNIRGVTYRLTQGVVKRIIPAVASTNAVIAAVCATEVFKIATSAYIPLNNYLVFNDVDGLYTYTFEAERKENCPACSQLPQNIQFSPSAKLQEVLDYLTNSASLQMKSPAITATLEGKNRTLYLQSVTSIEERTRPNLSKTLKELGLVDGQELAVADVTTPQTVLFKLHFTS
T2 sequence (Q13564 1-534 partner): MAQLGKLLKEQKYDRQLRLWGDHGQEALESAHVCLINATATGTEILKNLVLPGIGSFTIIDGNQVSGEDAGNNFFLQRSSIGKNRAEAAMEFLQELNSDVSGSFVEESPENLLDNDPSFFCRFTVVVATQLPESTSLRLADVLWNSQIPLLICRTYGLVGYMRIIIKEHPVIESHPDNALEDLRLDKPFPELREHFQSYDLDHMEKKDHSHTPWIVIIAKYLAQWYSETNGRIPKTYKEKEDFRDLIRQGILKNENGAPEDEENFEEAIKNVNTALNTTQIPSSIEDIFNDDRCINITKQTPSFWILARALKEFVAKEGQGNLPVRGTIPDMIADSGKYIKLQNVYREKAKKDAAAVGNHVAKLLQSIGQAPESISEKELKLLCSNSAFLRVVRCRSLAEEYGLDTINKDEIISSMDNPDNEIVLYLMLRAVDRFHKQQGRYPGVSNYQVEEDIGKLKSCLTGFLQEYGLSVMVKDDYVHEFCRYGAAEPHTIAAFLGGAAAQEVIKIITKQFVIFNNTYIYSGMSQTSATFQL
Nature of the assay: Nedd8 activity (Table I, biological activities). It is filed as biochemical.

As for `COC(=O)C1=C(C(=O)Nc2ccc(OC)cc2)C2C=CC1(C(Cc1ccccc1)Nc1cccc(CO)c1)O2` (stereo not shown) [Compound 537], in the assay on c-Myc, the c-Myc result is listed as “+”. Moreover, the SUMO result on SUMO is listed as “++”. The Nedd8 entry on Nedd8 was “++”.
On to `COC(=O)C1=C(C(N)=O)C2C=CC1(C(Cc1ccccc1)Nc1ccc(F)cc1)O2` (stereo not shown) [Compound 540], for which the c-Myc result in the assay on c-Myc was “++”. The SUMO result on SUMO is “++”. For the same molecule, on Nedd8, the Nedd8 result was “++”.
In the case of `Cc1ccc(S(=O)(=O)C2=CC3(C)C=CC2(C(Cc2ccccc2)Nc2ccccc2)O3)cc1` (stereo not shown) [Compound 531], the SUMO entry at SUMO is on record as “+”. The Nedd8 entry at Nedd8 is reported as “++”.
Take `CCOC(=O)C1=C(C(=O)NCCN2CCCC2)C2C=CC1(C(Cc1ccccc1)Nc1ccccc1)O2` (stereo not shown) [Compound 564]: the c-Myc result with c-Myc is listed as “+”. The SUMO entry on SUMO is “++”.
With `COC(=O)C1=C(C(=O)Nc2ccc(C)c(F)c2)C2C=CC1(C(Cc1ccccc1)Nc1ccccc1F)O2` (stereo not shown) [Compound 351], the c-Myc entry in the assay on c-Myc is reported as “+”. Moreover, the SUMO result at SUMO is recorded as “+++”.
Turning to `COC(=O)C1=C(C(=O)OC)C2(C(Cc3ccccc3)Oc3ccccc3)OC1C1OC12` (stereo not shown) [Compound 515], the c-Myc entry in the assay with c-Myc was “+”. Besides, the SUMO result on SUMO is reported as “++”.
Turning to `COC(=O)C1=C(C(N)=O)C2C=CC1(C(Nc1ccccc1)C1CCC1)O2` (stereo not shown) [Compound 179], the c-Myc result in the assay on c-Myc is “+”. Moreover, the SUMO result at SUMO is given as “+”.
As to `CCOC(=O)C1=C(C(=O)NCCN(C)C)C2C=CC1(C(Nc1ccccc1)c1ccc(CN3CCOCC3)cc1)O2` (stereo not shown) [Compound 571], the c-Myc result in the assay with c-Myc was “+”. On SUMO, the SUMO entry is listed as “++”.
For the molecule `CC(C)(C)OC(=O)C1=C(C(=O)OC(C)(C)C)C2(C(Cc3ccccc3)Nc3ccc(F)cc3F)C=CC1O2` (stereo not shown) [Compound 313], in the assay with c-Myc, the c-Myc entry is “+”. Also, the SUMO entry on SUMO is given as “+++”.
On to `COC(=O)C1=C(C(=O)NC2CCN(C)C2)C2C=CC1(C(Cc1ccccc1)Nc1cc(F)cc(Cl)c1)O2` (stereo not shown) [Compound 238], for which, in the assay on c-Myc, the c-Myc entry was “++”. For the same molecule, on SUMO, the SUMO entry is “+++”.
Consider `COC(=O)C1=C(C(=O)Nc2ccc(OC)cc2)C2C=CC1(C(Cc1ccccc1)Nc1cc(F)cc(F)c1)O2` (stereo not shown) [Compound 204], for which the c-Myc entry in the assay with c-Myc was “+”. For the same molecule, on SUMO, the SUMO result was “+++”.
For `COC(=O)C1=C(C(=O)Nc2cccc(F)c2C)C2C=CC1(C(Cc1ccccc1)Nc1ccccc1)O2` (stereo not shown) [Compound 359], the c-Myc result in the assay with c-Myc is reported as “+”. Also, at SUMO, the SUMO result is listed as “++”.
Consider `COC(=O)C1=C(C(=O)NC2CCN(C)CC2)C2OC1(C(Cc1ccccc1)Oc1ccccc1)C1OC21` (stereo not shown) [Compound 541], for which the c-Myc result in the assay with c-Myc is on record as “++”. In addition, on SUMO, the SUMO result is “++”. Besides, the Nedd8 entry at Nedd8 was “++”.
Regarding `COC(=O)C1=C(C(=O)NNc2ccccn2)C2C=CC1(C(Cc1ccccc1)Nc1ccccc1)O2` (stereo not shown) [Compound 221], the c-Myc result in the assay with c-Myc is “+”. Moreover, the SUMO result on SUMO is “++”.
For the molecule `CCOC(=O)C1=C(C(N)=O)C2C=CC1(C(Nc1ccccc1)c1ccc(CN3CCOCC3)cc1)O2` (stereo not shown) [Compound 552], the c-Myc result in the assay on c-Myc is listed as “+”. In addition, the SUMO result on SUMO was “++”.
Regarding `COC(=O)C1=C(C(=O)Nc2ccc(OC)cc2OC)C2C=CC1(C(Cc1ccccc1)Nc1ccccc1)O2` (stereo not shown) [Compound 353], the c-Myc entry in the assay with c-Myc is recorded as “+”. For the same molecule, the SUMO result at SUMO is “+”.
For `COC(=O)C1=C(C(=O)NC2CCN(S(=O)(=O)c3ccccc3)CC2)C2C=CC1(C(Cc1ccccc1)Nc1ccccc1)O2` (stereo not shown) [Compound 358], the c-Myc entry in the assay on c-Myc is reported as “+”. Further, at SUMO, the SUMO result is given as “+”.
Turning to `COC(=O)C1=C(C(=O)NC2CCN(C)CC2)C2C=CC1(C(Cc1ccccc1)Oc1ccccc1)O2` (stereo not shown) [Compound 292], the c-Myc entry in the assay on c-Myc is recorded as “++”. For the same molecule, the SUMO result on SUMO is “++”.
`COC(=O)C1=C(C(=O)Nc2ccc(OC)c(F)c2)C2C=CC1(C(Cc1ccccc1)Nc1ccccc1)O2` (stereo not shown) [Compound 308]: the c-Myc result with c-Myc is “+”. The SUMO entry on SUMO is reported as “+”.
Regarding `COC(=O)C1=C(C(=O)NC2CCN(C(=O)c3c(C)cccc3C)CC2)C2C=CC1(C(Cc1ccccc1)Nc1ccccc1)O2` (stereo not shown) [Compound 381], the c-Myc result in the assay on c-Myc is “+”. Further, on SUMO, the SUMO result was “++”.
In the case of `C=CCC(Nc1ccccc1)C12C=CC(O1)C(C(=O)NCCN(C)C)=C2C(=O)OC` (stereo not shown) [Compound 415], the c-Myc entry with c-Myc is given as “+”. The SUMO entry at SUMO is reported as “++”.
Consider `COC(=O)C1=C(C(=O)NCCN2CCOCC2)C2C=CC1(C(Cc1ccccc1)Nc1cc(F)cc(Cl)c1)O2` (stereo not shown) [Compound 226], for which, in the assay with c-Myc, the c-Myc result is reported as “++”. Besides, the SUMO result at SUMO is “+++”.
Take `COC(=O)C1=C(C(=O)NC2CCN(C)CC2)C2C=CC1(C(Cc1ccccc1)Nc1c(F)cccc1F)O2` (stereo not shown) [Compound 258]: in the assay on c-Myc, the c-Myc result is reported as “+”. Besides, the SUMO result on SUMO was “++”.
For `CCOC(=O)C1=C(C(=O)NC2CCN(C)CC2)C2CCC1(C(Cc1ccccc1)Nc1ccc(F)cc1F)O2` (stereo not shown) [Compound 345], in the assay on c-Myc, the c-Myc entry is listed as “+”. The SUMO result at SUMO is on record as “+”.
Regarding `CCOC(=O)C1=C(C(=O)Nc2ccc(OC(F)(F)F)cc2)C2C=CC1(C(Nc1ccccc1)c1ccc(CN3CCOCC3)cc1)O2` (stereo not shown) [Compound 599], the c-Myc entry in the assay with c-Myc is “++”. Also, the SUMO result on SUMO was “++”.
`CCCCC(Nc1cc(F)cc(F)c1)C12C=CC(O1)C(C(=O)OC)=C2C(=O)OC` (stereo not shown) [Compound 212]: in the assay with c-Myc, the c-Myc result was “+”. Also, the SUMO entry at SUMO was “+++”.
Regarding `COC(=O)C1=C(C(=O)OC)C2(C(Cc3ccccc3)Nc3ccccc3)C=CC1(C)O2` (stereo not shown) [Compound 586], the c-Myc result in the assay on c-Myc is reported as “+”. At SUMO, the SUMO result is recorded as “++”.
For `CCOC(=O)C1=CC2OC1(C(Nc1ccccc1)c1ccccc1)c1ccccc12` (stereo not shown) [Compound 625], in that order: “+” and “+”.
In the case of `COC(=O)C1=C(C(=O)NC2CCN(C(C)C)CC2)C2CCC1(C(Cc1ccccc1)Nc1ccccc1)O2` (stereo not shown) [Compound 366], the c-Myc result with c-Myc is reported as “+”. For the same molecule, the SUMO result on SUMO is reported as “+”.
